Data published in patent US7795290B2 (Genentech, Inc., priority 2004, dated 2010).

Biological target: T1, AKT1 (Homo sapiens, UniProt P31749)
T1 construct: purchased Upstate 14-276
Assay: HTS ATP-utilizing enzyme assay, off-chip mobility-shift (Caliper HTS 250)
Assay type: biochemical
Details: kinase named = inhibitory activity/selectivity; test compound 10 μM; active = greater than three-sigma from mean
Procedure, shortened: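 AKT1 activity was measured by off-chip mobility shift (Caliper HTS 250) as the ratio of peptide substrate to phosphorylated product. Test compound was at 10 μM, with 2.5 h incubation at 20–22° C. EDTA wells served as 100% control and DMSO wells as 0%. Hits were called at three-sigma limits.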

T1 sequence (P31749 whole entry): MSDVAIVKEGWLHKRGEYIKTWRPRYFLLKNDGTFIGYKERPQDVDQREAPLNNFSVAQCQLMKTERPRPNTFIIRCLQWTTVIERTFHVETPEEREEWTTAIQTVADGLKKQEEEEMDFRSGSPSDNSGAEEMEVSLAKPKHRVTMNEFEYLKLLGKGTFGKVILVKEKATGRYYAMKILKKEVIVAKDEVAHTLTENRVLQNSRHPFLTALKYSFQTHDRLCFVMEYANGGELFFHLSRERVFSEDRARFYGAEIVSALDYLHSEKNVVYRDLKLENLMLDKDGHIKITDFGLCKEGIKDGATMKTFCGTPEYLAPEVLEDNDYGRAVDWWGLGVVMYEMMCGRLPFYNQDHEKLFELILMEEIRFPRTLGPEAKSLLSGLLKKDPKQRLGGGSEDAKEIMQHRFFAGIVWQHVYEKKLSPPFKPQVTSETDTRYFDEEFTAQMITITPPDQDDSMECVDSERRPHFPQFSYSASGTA

Row | Compound | Activity
1 | COc1ccc(-c2csc(N(CCN3CCOCC3)C(=O)c3cccs3)n2)cc1OC [N-(4-(3,4-dimethoxyphenyl)thiazol-2-yl)-N-(2-morpholinoethyl)thiophene-2-carboxamide] | AKT1
2 | COc1ccc(-c2csc(N(CCCN3CCCC3=O)C(=O)c3cccs3)n2)cc1OC [N-(4-(3,4-dimethoxyphenyl)thiazol-2-yl)-N-(3-(2-oxopyrrolidin-1-yl)propyl)thiophene-2-carboxamide] | AKT1
3 | COc1ccc(-c2csc(N(CCCN3CCN(C)CC3)C(=O)c3cccs3)n2)cc1OC [N-(4-(3,4-dimethoxyphenyl)thiazol-2-yl)-N-(3-(4-methylpiperazin-1-yl)propyl)thiophene-2-carboxamide] | AKT1
4 | COc1ccc(-c2csc(N(CCCN3CCOCC3)C(=O)c3ccccc3)n2)cc1OC [N-(4-(3,4-dimethoxyphenyl)thiazol-2-yl)-N-(3-morpholinopropyl)benzamide] | AKT1
5 | COc1ccc(-c2csc(N(CCCN3CCOCC3)C(=O)C3CCCC3)n2)cc1OC [N-(4-(3,4-dimethoxyphenyl)thiazol-2-yl)-N-(3-morpholinopropyl)cyclopentanecarboxamide] | AKT1
6 | COc1ccc(-c2csc(N(CCCN3CCOCC3)C(=O)c3ccco3)n2)cc1OC [N-(4-(3,4-dimethoxyphenyl)thiazol-2-yl)-N-(3-morpholinopropyl)furan-2-carboxamide] | AKT1
7 | COc1ccc(-c2csc(N(CCCN3CCOCC3)C(=O)c3cccs3)n2)cc1OC [N-(4-(3,4-dimethoxyphenyl)thiazol-2-yl)-N-(3-morpholinopropyl)thiophene-2-carboxamide] | AKT1
8 | COc1ccc(-c2csc(N(CCCc3ccccc3)C(=O)c3cccs3)n2)cc1OC [N-(4-(3,4-dimethoxyphenyl)thiazol-2-yl)-N-(3-phenylpropyl)thiophene-2-carboxamide] | AKT1
9 | COc1ccc(-c2csc(N(CCCCCN3CCOCC3)C(=O)c3cccs3)n2)cc1OC [N-(4-(3,4-dimethoxyphenyl)thiazol-2-yl)-N-(5-morpholinopentyl)thiophene-2-carboxamide] | AKT1
10 | O=C(c1cccs1)N(CCCN1CCOCC1)c1nc(-c2cc(-c3ccc(Cl)cc3)no2)cs1 [N-(4-(3-(4-chlorophenyl)isoxazol-5-yl)thiazol-2-yl)-N-(3-morpholinopropyl)thiophene-2-carboxamide] | AKT1
11 | O=C(c1cccs1)N(CCCN1CCOCC1)c1nc(-c2cccc(Br)c2)cs1 [N-(4-(3-bromophenyl)thiazol-2-yl)-N-(3-morpholinopropyl)thiophene-2-carboxamide] | AKT1
12 | O=C(c1cccs1)N(CCCN1CCOCC1)c1nc(-c2cccc(F)c2)cs1 [N-(4-(3-fluorophenyl)thiazol-2-yl)-N-(3-morpholinopropyl)thiophene-2-carboxamide] | AKT1
13 | COc1cccc(-c2csc(N(CCCN3CCOCC3)C(=O)c3cccs3)n2)c1 [N-(4-(3-methoxyphenyl)thiazol-2-yl)-N-(3-morpholinopropyl)thiophene-2-carboxamide] | AKT1
14 | CN(C)CCNC(=O)c1ccc(-c2csc(N(CCCN3CCOCC3)C(=O)c3cccs3)n2)cc1 [N-(4-(4-(2-(dimethylamino)ethylcarbamoyl)phenyl)thiazol-2-yl)-N-(3-morpholinopropyl)thiophene-2-carboxamide] | AKT1
15 | O=C(NCCO)c1ccc(-c2csc(N(CCCN3CCOCC3)C(=O)c3cccs3)n2)cc1 [N-(4-(4-(2-hydroxyethylcarbamoyl)phenyl)thiazol-2-yl)-N-(3-morpholinopropyl)thiophene-2-carboxamide] | AKT1
16 | CN(C)CCCNC(=O)c1ccc(-c2csc(N(CCCN3CCOCC3)C(=O)c3cccs3)n2)cc1 [N-(4-(4-(3-(dimethylamino)propylcarbamoyl)phenyl)thiazol-2-yl)-N-(3-morpholinopropyl)thiophene-2-carboxamide] | AKT1
17 | O=C(NCCCO)c1ccc(-c2csc(N(CCCN3CCOCC3)C(=O)c3cccs3)n2)cc1 [N-(4-(4-(3-hydroxypropylcarbamoyl)phenyl)thiazol-2-yl)-N-(3-morpholinopropyl)thiophene-2-carboxamide] | AKT1
18 | CN1CCN(C(=O)c2ccc(-c3csc(N(CCCN4CCOCC4)C(=O)c4cccs4)n3)cc2)CC1 [N-(4-(4-(4-methylpiperazine-1-carbonyl)phenyl)thiazol-2-yl)-N-(3-morpholinopropyl)thiophene-2-carboxamide] | AKT1
19 | O=C(c1cccs1)N(CCCN1CCOCC1)c1nc(-c2ccc(OC(F)F)cc2)cs1 [N-(4-(4-(difluoromethoxy)phenyl)thiazol-2-yl)-N-(3-morpholinopropyl)thiophene-2-carboxamide] | AKT1
20 | CNC(=O)c1ccc(-c2csc(N(CCCN3CCOCC3)C(=O)c3cccs3)n2)cc1 [N-(4-(4-(methylcarbamoyl)phenyl)thiazol-2-yl)-N-(3-morpholinopropyl)thiophene-2-carboxamide] | AKT1
21 | CS(=O)(=O)c1ccc(-c2csc(N(CCCN3CCOCC3)C(=O)c3cccs3)n2)cc1 [N-(4-(4-(methylsulfonyl)phenyl)thiazol-2-yl)-N-(3-morpholinopropyl)thiophene-2-carboxamide] | AKT1
22 | O=C(c1cccs1)N(CCCN1CCOCC1)c1nc(-c2ccc(Cl)c([N+](=O)[O-])c2)cs1 [N-(4-(4-chloro-3-nitrophenyl)thiazol-2-yl)-N-(3-morpholinopropyl)thiophene-2-carboxamide] | AKT1
23 | O=C(c1cccs1)N(CCCN1CCOCC1)c1nc(-c2ccc(Cl)cc2)cs1 [N-(4-(4-chlorophenyl)thiazol-2-yl)-N-(3-morpholinopropyl)thiophene-2-carboxamide] | AKT1
24 | N#Cc1ccc(-c2csc(N(CCCN3CCOCC3)C(=O)c3cccs3)n2)cc1 [N-(4-(4-cyanophenyl)thiazol-2-yl)-N-(3-morpholinopropyl)thiophene-2-carboxamide] | AKT1
25 | O=C(c1cccs1)N(CCCN1CCOCC1)c1nc(-c2ccc(F)cc2)cs1 [N-(4-(4-fluorophenyl)thiazol-2-yl)-N-(3-morpholinopropyl)thiophene-2-carboxamide] | AKT1

Next, values leading:

Row | Activity | Compound
26 | AKT1 | COc1ccc(-c2csc(N(CCCN3CCCCC3)C(=O)c3cccs3)n2)cc1OC [N-(4-(3,4-dimethoxyphenyl)thiazol-2-yl)-N-(3-(piperidin-1-yl)propyl)thiophene-2-carboxamide]
27 | AKT1 | COc1ccc(-c2csc(N(CCCN3CCOCC3)C(=O)C3CCC3)n2)cc1OC [N-(4-(3,4-dimethoxyphenyl)thiazol-2-yl)-N-(3-morpholinopropyl)cyclobutanecarboxamide]
28 | AKT1 | COc1ccc(-c2csc(N(CCCN3CCOCC3)C(=O)c3ccccn3)n2)cc1OC [N-(4-(3,4-dimethoxyphenyl)thiazol-2-yl)-N-(3-morpholinopropyl)picolinamide]
29 | AKT1 | CN(C)CCOc1cccc(-c2csc(N(CCCN3CCOCC3)C(=O)c3cccs3)n2)c1 [N-(4-(3-(2-(dimethylamino)ethoxy)phenyl)thiazol-2-yl)-N-(3-morpholinopropyl)thiophene-2-carboxamide]
30 | AKT1 | CN(C)CCCOc1cccc(-c2csc(N(CCCN3CCOCC3)C(=O)c3cccs3)n2)c1 [N-(4-(3-(3-(dimethylamino)propoxy)phenyl)thiazol-2-yl)-N-(3-morpholinopropyl)thiophene-2-carboxamide]
31 | AKT1 | CC(=O)NC1CCN(C(=O)CCCN(C(=O)c2cccs2)c2nc(-c3cc4ccccc4o3)cs2)C1 (stereo not shown) [N-(4-(3-acetamidopyrrolidin-1-yl)-4-oxobutyl)-N-(4-(benzofuran-2-yl)thiazol-2-yl)thiophene-2-carboxamide]
32 | AKT1 | O=C(c1cccs1)N(CCCN1CCOCC1)c1nc(-c2cccc(Cl)c2)cs1 [N-(4-(3-chlorophenyl)thiazol-2-yl)-N-(3-morpholinopropyl)thiophene-2-carboxamide]
33 | AKT1 | Cc1c(-c2csc(N(CCCN3CCOCC3)C(=O)c3cccs3)n2)sc2ccccc12 [N-(4-(3-methylbenzo[b]thiophen-2-yl)thiazol-2-yl)-N-(3-morpholinopropyl)thiophene-2-carboxamide]
34 | AKT1 | CN(C)CCOc1ccc(-c2csc(N(CCCN3CCOCC3)C(=O)c3cccs3)n2)cc1 [N-(4-(4-(2-(dimethylamino)ethoxy)phenyl)thiazol-2-yl)-N-(3-morpholinopropyl)thiophene-2-carboxamide]
35 | AKT1 | O=C(NCCN1CCOCC1)c1ccc(-c2csc(N(CCCN3CCOCC3)C(=O)c3cccs3)n2)cc1 [N-(4-(4-(2-morpholinoethylcarbamoyl)phenyl)thiazol-2-yl)-N-(3-morpholinopropyl)thiophene-2-carboxamide]
36 | AKT1 | CN(C)CCCOc1ccc(-c2csc(N(CCCN3CCOCC3)C(=O)c3cccs3)n2)cc1 [N-(4-(4-(3-(dimethylamino)propoxy)phenyl)thiazol-2-yl)-N-(3-morpholinopropyl)thiophene-2-carboxamide]
37 | AKT1 | CN(C)C(=O)c1ccc(-c2csc(N(CCCN3CCOCC3)C(=O)c3cccs3)n2)cc1 [N-(4-(4-(dimethylcarbamoyl)phenyl)thiazol-2-yl)-N-(3-morpholinopropyl)thiophene-2-carboxamide]
38 | AKT1 | O=C(c1ccc(-c2csc(N(CCCN3CCOCC3)C(=O)c3cccs3)n2)cc1)N1CCOCC1 [N-(4-(4-(morpholine-4-carbonyl)phenyl)thiazol-2-yl)-N-(3-morpholinopropyl)thiophene-2-carboxamide]
39 | AKT1 | NC(=O)c1ccc(-c2csc(N(CCCN3CCOCC3)C(=O)c3cccs3)n2)cc1 [N-(4-(4-carbamoylphenyl)thiazol-2-yl)-N-(3-morpholinopropyl)thiophene-2-carboxamide]
40 | AKT1 | Cc1cc(-c2csc(N(CCCN3CCOCC3)C(=O)c3cccs3)n2)ccc1Cl [N-(4-(4-chloro-3-methylphenyl)thiazol-2-yl)-N-(3-morpholinopropyl)thiophene-2-carboxamide]
